Source: US10519504B2, “Methods for treatment of oncological disorders using epimetabolic shifters, multidimensional intracellular molecules, or environmental influencers” (Berg LLC, priority 2009, dated 2019)

System: Succinate Dehydrogenase (SDH) Subunit B
Experiment: Western blot, Succinate Dehydrogenase B in mitochondrial preparations
Assay type: cell-based
Details: mitochondrial preparations of cancer cells
Description: The above blots were stripped by incubating for 30 minutes with methanol, followed by two 10 minute washes with TBS-T, then 30 minutes of incubation with Stripping buffer at 50 deg C., and followed by two washes with 100 ml or more of TBS-T for 30′ each. The blots were scanned in laser scanner to check for complete stripping. The blots were activated with methanol for 5 seconds, washed with water for 5 minutes, and TBST for 15 minutes. The blots were blocked for 1 hour with 5% blocking reagent in TBS-T at room temperature and then washed 3 times with TBS-T (1X−15′; 2X5′ each) and probed with the primary antibody for PKM2, SDHB or SDHC in 5% BSA in TBS-T by incubation overnight at 4 deg C. with gentle shaking. The primary antibody for SDHC (ABNOVA H00006391-M12; antimouse) was at 1:500 dilution. The primary antibody for SDHB was from Abcam ab4714-200; antimouse; at 1:1000 dilution. The primary antibody for Pyruvate Kinase M2 (PKM2) was from Novus Biologicals H00005315-D0IP; antirabbit; at 1:500 dilution. After incubation with primary antibodies, the membranes were washed 3 times with TBS-T (1X−15′; 2X5′ each) and probed with the secondary antibody (SDHB & C antimouse; and PKM2 antirabbit; 1:10,000 dilution) for 1 h on the orbital tilting shaker at room temperature. […]

In the case of COC1=C(OC)C(=O)C(C/C=C(\C)CC/C=C(\C)CC/C=C(\C)CC/C=C(\C)CC/C=C(\C)CC/C=C(\C)CC/C=C(\C)CC/C=C(\C)CC/C=C(\C)CCC=C(C)C)=C(C)C1=O [Q10, Coenzyme Q10], the SDH protein levels is reported as “increase SDH protein levels”.
